“Also recorded” adds a separate entry of the source. Structures can show the parent of a compound that is named as a salt. Where two headings read alike, the source gives them in different places.
Tests used:
superoxide anion = assay: Superoxide anion scavenging by EPR (DEPMPO spin trap) in phorbol ester-stimulated isolated neutrophils; assay type: cell-based, human; conditions: for potency relative to the SOD mimetic positive control: adjusted for percent inhibition and tested dose
Procedure: In an experiment, neutrophils were isolated on a Percoll gradient from whole blood from a human volunteer. The isolated neutrophils were then re-suspended in phosphate-buffered saline, and maximally stimulated with phorbol ester to induce the respiratory burst and production of superoxide anion. To the solution of activated human neutrophils, the disodium salt disuccinate astaxanthin derivative XVI was added at various concentrations, and the superoxide signal [as measured with electron paramagnetic resonance (EPR) spectroscopy] was subsequently measured. […] The disodium salt disuccinate astaxanthin derivative XVI tested at 100 μM scavenged 28% of the total signal. At 3 mM, almost no superoxide signal remained. […] In addition to reducing the superoxide anion signal important in ischemia-reperfusion injury, it is also likely that myocardial salvage can be achieved with the described carotenoid derivative, as superoxide anion plays a major role in tissue injury and death during prolonged myocardial ischemia. In a third experiment, neutrophils were again isolated on a Percoll gradient from whole blood from a second human volunteer. The isolated neutrophils were then re-suspended in phosphate-buffered saline, and maximally stimulated with phorbol ester to induce the respiratory burst and production of superoxide anion. […] Astaxanthin 2E was dissolved in HPLC grade dimethylsulfoxide (DMSO; Sigma-Aldrich, St. Louis, Mo.). The disodium disuccinate derivatives XVI of astaxanthin 2E were tested separately in […] formulations: statistical mixture of stereoisomers (as for astaxanthin, above, a 1:2:1 mixture of all-E; labeled as “mixture” in all tables and figures); 3S,3'S, and 3R,3'R (optical isomers or enantiomers); and meso (mixture of identical 3S,3'R and 3'S,3R; diastereomers of the enantiomeric pair). […] The disuccinate derivatives were first tested at the appropriate final concentrations in pure aqueous solution (deionized water) from stock solutions of 10 mM. Each of the four disuccinate derivatives were then tested from stock solutions prepared in a 1:2 mixture of ethanol (final concentration of EtOH in stock solution 331⁄3%; final concentration in isolated neutrophil assay 0.3%; HPLC grade ethanol, Sigma-Aldrich, St. Louis, Mo.) at 10 mM. […] Metaphore® Pharmaceuticals, Inc., St. Louis, Mo.) were also performed. Human polymorphonuclear leukocytes (PMNs) were isolated from freshly sampled venous blood of a single volunteer by Percoll density gradient centrifugation, which yielded PMNs with a purity of >95%. Each 10 mL of whole blood was mixed with 0.8 mL of 0.1 M EDTA and 25 mL of saline. The diluted blood was layered over 9 mL of Percoll at a specific density of 1.080 g/mL. After centrifugation at 400×g for 20 min at 20° C., the plasma, mononuclear cell, and Percoll layers were removed. Erythrocytes were lysed by addition of 18 mL of ice-cold water for 30 s, followed by 2 mL of 10× PIPES buffer (25 mM PIPES, 110 mM NaCl, and 5 mM KCl, titrated to pH 7.4 with NaOH). Cells were pelleted at 4° C., the supernatant was decanted, and the procedure was repeated. After the second hypotonic lysis, cells were washed twice with PAG buffer (PIPES buffer containing 0.003% human serum albumin and 0.1% glucose). Afterward, PMNs were counted by light microscopy on a hemocytometer. The final pellet was then suspended in PAG-CM buffer (PAG buffer with 1 mM CaCl2 and 1 mM MgCl2). All EPR measurements were performed using a Bruker ER 300 EPR spectrometer operating at X-band with a TM110 cavity. The microwave frequency was measured with a Model 575 microwave counter (EIP Microwave, Inc., San Jose, Calif.). To measure O^ -2 generation from phorbol-ester (PMA)-stimulated PMNs, EPR spin-trapping studies were performed using DEPMPO (Oxis, Portland, Oreg.) at 10 mM. 1×10^6 PMNs were stimulated with PMA (1 ng/mL) and loaded into capillary tubes for EPR measurements. […]

male Sprague-Dawley rats = assay: Infarct size reduction after coronary artery occlusion/reperfusion; assay type: in vivo, rat; conditions: for relationship of infarct size reduction / myocardial salvage to dose: 25, 50, 75 mg/kg I.V.
Procedure: FIG. 4, FIG. 25, and FIG. 26 depict graphical representations of the reduction of infarct size in male Sprague-Dawley rats. Male Sprague-Dawley rats were pre-treated with the disodium salt disuccinate astaxanthin derivative XVI (as the mixture of stereoisomers) in aqueous solution before performing an occlusion and inducing a myocardial infarction. Male Sprague-Dawley rats (175-200 grams) were anaesthetized with 100 mg/kg of Inactin, instrumented, and the heart exposed. […] The hearts were washed in buffer and incubated in triphenyltetrazolium chloride (TTC) staining solution kept at 37° C. in phosphate buffer at pH of 7.40. Infarct size (IS) was expressed as a % of the area at risk (IS/AAR, %). Systemic blood pressure, heart rate, blood gases and body temperature were monitored throughout the experiment, and temperature and blood gases were tightly controlled at normal physiological levels. 25, 50, or 75 mg/kg of the disodium salt disuccinate astaxanthin derivative XVI or sterile saline vehicle was administered I.V. by tail vein injection every day for 4 days prior to the infarct experiment on day 5 and subsequent infarct size determination.

[1] = Liver accumulation of free astaxanthin after single oral dose; assay type: in vivo, male C57BL/6 mice
Procedure: Free astaxanthin concentration was also determined, at the same time points as for plasma samples, in liver. Livers were removed from each animal in the pharmacokinetic study after sacrifice, and snap frozen in liquid nitrogen. Liver tissue was prepared for HPLC analysis as described (Jewell, 1999). Therefore, simultaneous examination of liver accumulation of free astaxanthin was performed at the same time points as the plasma analyses. Up to 300 mg of liver from each animal was snap frozen in liquid nitrogen. Tissue homogenization and extraction were performed with a mixture of chloroform/methanol/water, according to the methods of Jewell (1999). Non-esterified, free astaxanthin accumulation in liver was then evaluated by HPLC as described above for plasma samples.

male ICR mice = assay: LPS/galactosamine-induced liver injury (plasma ALT); assay type: in vivo, mouse; conditions: for LPS-induced ALT elevation: 500 mg/kg oral gavage in emulsion 2 hours before LPS/D-galactosamine IP, 5 hours
Procedure: Three-month old male ICR mice were treated with LPS and galactosamine in order to induce liver injury (Leist, 1995). Mice were first orally gavaged with either an olive oil/water/lecithin emulsion (10 mL/kg, or 0.3 mL for a 30 gram mouse), or the same emulsion containing the disodium disuccinate astaxanthin derivative XVI (50 mg/mL) for a final disodium disuccinate astaxanthin dose of 500 mg/kg. Two hours later mice were injected intraperitoneally (IP) with either saline (10 mL/kg) or a solution of E. coli LPS (3 mg/kg, Sigma catalog number L-3755) and D-galactosamine (700 mg/kg). Animals were sacrificed by carbon dioxide (CO2) asphyxiation 5 hours after the IP injection, and plasma was then collected for ALT determination.

CC1=C(/C=C/C(C)=C/C=C/C(C)=C/C=C/C=C(C)/C=C/C=C(C)/C=C/C2=C(C)C(=O)C(OC(=O)CCC(=O)O)CC2(C)C)C(C)(C)CC(OC(=O)CCC(=O)O)C1=O (racemic) [XVI, Disodium Salt of the Disuccinic Acid Ester of Astaxanthin]
total superoxide signal scavenged (superoxide anion; 100 μM, first experiment (FIG. 2)): 28% | suppression of superoxide anion signal (superoxide anion; 3 mM, first experiment (FIG. 2)): near complete suppression of the superoxide anion signal | inhibition at 100 µM (superoxide anion; Homo sapiens, Neutrophil, Solvent EtOH (1:2 EtOH/water stock, 0.3% final), 0.1 mM, read-out: Mean (% inhibition) of superoxide anion signal): ~40% | inhibition at 500 µM (superoxide anion; Homo sapiens, Neutrophil, Solvent EtOH, 0.5 mM, read-out: Mean (% inhibition) of superoxide anion signal): 60.1% | inhibition at 1000 µM (superoxide anion; Homo sapiens, Neutrophil, Solvent EtOH, 1.0 mM, read-out: Mean (% inhibition) of superoxide anion signal): 78% | inhibition at 3000 µM (superoxide anion; Homo sapiens, Neutrophil, Solvent EtOH, 3.0 mM, read-out: Mean (% inhibition) of superoxide anion signal): 95% | inhibition at 100 µM (superoxide anion; Homo sapiens, Neutrophil, Solvent Water, 0.1 mM, read-out: Mean (% inhibition) of superoxide anion signal): 19.3% | Mean (% inhibition) of superoxide anion signal (superoxide anion; Solvent EtOH (1:2 EtOH/water stock, 0.3% final), 0.1 mM, listed as Mixture): 38.0% | potency relative to the SOD mimetic positive control (superoxide anion): one to two orders of magnitude less potent | potency relative to the SOD mimetic positive control (superoxide anion; listed as disodium disuccinate derivative): between one and two orders of magnitude less potent | mean myocardial salvage (male Sprague-Dawley rats; 75 mg/kg I.V. daily for 4 days before 30 min occlusion / 2 hours reperfusion): 56% | relationship of infarct size reduction / myocardial salvage to dose (male Sprague-Dawley rats): increased linearly, and significantly, with dose | relationship of infarct size reduction / myocardial salvage to dose (male Sprague-Dawley rats; listed as Cardax™): linear relationship between dose and infarct size reduction | Oral clearance ([1]; Liver, free astaxanthin, single 500 mg/kg oral dose): 15.856 L/h | liver vs plasma levels of free astaxanthin at each sampling interval ([1]; single 500 mg/kg oral gavage in emulsion): equal or greater to that in plasma | LPS-induced ALT elevation (male ICR mice): substantially reduced | LPS-induced ALT elevation (male ICR mice; listed as disodium disuccinate astaxanthin derivative): reduced induced levels of ALT | effect on plasma ALT in saline injected (sham-treated) animals (male ICR mice; 500 mg/kg oral gavage in emulsion, listed as disodium disuccinate astaxanthin derivative): no effect on plasma ALT; also recorded: no effect on background levels of ALT

From patent US7345091B2, “Carotenoid ether analogs or derivatives for the inhibition and amelioration of disease” (Cardax Pharmaceuticals, Inc., priority 2002, dated 2008)
